{
  "source": "paper PMC7468596",
  "about": "“Potent In Vitro α-Glucosidase and β-Secretase Inhibition of Amyrin-Type Triterpenoid Isolated from Datura metel Linnaeus (Angel's Trumpet) Fruits” (BioMed Research International, 2020)",
  "key": {"[1]": {"target": "T1, α-glucosidase (rat intestinal)", "T1 construct": "supernatant of rat intestinal acetone powder", "assay": "p-nitrophenyl-α-D-glucopyranoside hydrolysis, […] nm, crude intestinal enzyme", "format": "biochemical"}, "[2]": {"target": "β-secretase (BACE1) (Homo sapiens, UniProt P56817)", "sequence (P56817 46-457)": "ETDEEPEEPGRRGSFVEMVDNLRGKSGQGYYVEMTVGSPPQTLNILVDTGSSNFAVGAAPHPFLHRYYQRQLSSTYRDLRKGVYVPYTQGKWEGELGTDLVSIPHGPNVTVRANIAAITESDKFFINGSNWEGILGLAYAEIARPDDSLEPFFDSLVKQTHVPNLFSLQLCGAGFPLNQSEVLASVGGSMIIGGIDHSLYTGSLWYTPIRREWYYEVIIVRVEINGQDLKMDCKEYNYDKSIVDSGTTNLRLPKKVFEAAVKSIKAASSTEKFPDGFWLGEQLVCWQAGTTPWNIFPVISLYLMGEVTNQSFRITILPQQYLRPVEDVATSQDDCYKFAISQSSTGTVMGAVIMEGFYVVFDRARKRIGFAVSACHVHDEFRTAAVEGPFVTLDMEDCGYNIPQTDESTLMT", "assay": "BACE1 FRET enzyme assay, pH […]", "format": "biochemical"}},
  "data": [
    {"smiles": "CC1(C)CC[C@]2(C)CC[C@]3(C)C(=CC[C@@H]4[C@@]5(C)CCC(=O)C(C)(C)[C@@H]5[C@H](O)C[C@]43C)[C@@H]2C1", "note": "[compound 1, daturaolone]", "values": [
      {"measurement": "IC50", "setting": "[1]", "result": "830.4 ± 2.01", "unit": "µM"},
      {"measurement": "IC50", "setting": "[2]", "result": "260.7 ± 1.87", "unit": "µM"}
    ]}
  ]
}
